Reference: paper PMC12194305, “Assessing Bioconcentration and Biotransformation of BDE-47 In Vitro: The Relevance of Bioavailable and Intracellular Concentrations” (Journal of Xenobiotics, 2025)
“And” between values parts separate entries of the source, which are not always exact repeats. Equal entries are not always repeated. Where two headings read alike, the source gives them in different places.

Columns and labels:
ZFL cells [1] = assay: Biotransformation of BDE-47 in ZFL cells (metabolites in cells and medium)
HepG2 cells = tested on: HepG2 cells; design: method as in PMID 37289209; conditions: HepG2 cells 48 h, 20 mg·L^−1 BDE-47, calculated with estimated Cfree percentage, cited from earlier work
[2] = tested on: zebrafish eleutheroembryos; design: method as in PMID 36705440; conditions: zebrafish embryos 48 h, larvae samples; cited from earlier work
[3] = Experimental determination of free bioavailable concentration (Cfree,exp) in exposure medium by SPME; type: in vitro ADME; conditions: for Cfree, exp: 24–48 h
Method: In parallel with the exposure experiment for the evaluation of bioaccumulation and biotransformation described in the previous sections, an experiment was performed to estimate experimentally the free bioavailable concentration (Cfree,exp) in the test medium. For this purpose, an experiment was designed to simulate the test conditions, and Cfree was determined using solid-phase microextraction (SPME), following the fiber method developed by Henneberger et al..
PDMS-coated glass microfibers (30 µm thick, 13.19 µL/m coating volume) were cut into 1.5 cm pieces and cleaned in methanol for more than 24 h prior to the experiment, with the solvent replaced at least three times. The cleaned and dried fiber was placed in a glass vial with 1 mL of sample exposure medium containing 1.8 and 2.6 mg·L^−1 BDE-47. Three replicates were prepared for each condition. A portion of the initial sample was stored at −20 °C until analysis. The vials were then sealed and incubated with rotation at 28 °C for 72 h until equilibrium of BDE-47 distribution among the fiber, medium, and binding to the predominant serum protein of the culture (Bovine serum albumin, BSA) was reached. Once at equilibrium, the fibers were extracted from the vials and desorbed with 400 µL isooctane for 24 h with rotation. Finally, the extract was analyzed by GC-MS-µECD, as described in Section 2.5. The concentration of BDE-47 in the initial sample (Cmed,0h) and in the resulting media after equilibration (Cmed,eq) was determined according to the procedure described in Section 2.5, to confirm the actual mass balance.
Since this study evaluates and discusses the behavior of BDE-47 in comparison to observations from a previous study with phenanthrene, as explained in the introduction section, the experimental Cfree of phenanthrene was also determined, as it had not been measured previously. In this case, the difference in the process was that PA fibers (36 µm thick, 16.71 µL/m coating volume) were used. Samples of 10 and 20 mg·L^−1 PHE were prepared, and the fibers and samples were incubated for 24–48 h until equilibrium was reached, and desorbed with hexane for 3 h.
To determine the free concentration, concentration in the SPME fiber (Cfiber) was first estimated using Equation (1) from the concentration measured in the desorption extract (Cdes), the desorption volume (Vdes) and the coating volume of the fiber (Vfiber). This volume was estimated according to the coating volume and the length of the fiber.(1) Cfiber=Cdes·Vdes/Vfiber
Next, Cfree,exp was determined at the time before the SPME fiber was added to the system, according to Equation (2). For this, the concentration measured in the fiber equilibrated with the medium (PDMS-BDE-47-BSA or PA-PHE-BSA), the concentration measured in the initial sample (Cmed,0h), and the partition constant of the equilibrium formed between the fiber and the medium (log DPDMS/medium; BDE-47 = 5.84 [25]; log DPA/medium; PHE = 6.69 [26]) were used.(2) Cfree=Cmed,0h·Vsample/Dfiber/medium·Cmed,0h·Vsample/Cfiber−Vfiber

ZFL cells [4] = conditions: cited from earlier work; for Ratio MBM/experimental of internal concentration: ref De Oro-Carretero and Sanz-Landaluze 2024
ZFL cells [5] = tested on: ZFL cells; design: method as in PMID 39103099; conditions: exposure to 10 mg·L^−1 PHE, previous study; cited from earlier work
[6] = partition constant PA fiber/medium; cited from earlier work
[7] = design: method as in PMID 39103099; conditions: binding constant to BSA protein of FBS; cited from earlier work
[8] = design: method as in PMID 36264934; conditions: dialysis, DMEM + 10% newborn calf serum, Cnom 5 μmol·L^−1, 1% DMSO; cited from earlier work

Q: With `Oc1cc(Br)ccc1Oc1ccc(Br)cc1Br` [2′-OH-BDE-28] as the compound, how does the “detection of the metabolite in ZFL cell and medium samples on exposure to BDE-47” value (ZFL cells [1]; BDE-47 at 1.6 and 2.8 mg·L^−1, 24–72 h) read?
A: significant and increasing concentration over time

Q: Which “biotransformation ratio metabolite / BDE-47 concentration” value (HepG2 cells; medium samples) does the source give for `Oc1c(Br)ccc(Oc2ccc(Br)cc2Br)c1Br` [3-OH, 3-OH-BDE-47] here?
A: 0.13

Q: What about the “biotransformation ratio metabolite / free bioavailable BDE-47 concentration” value (ZFL cells [1]; medium samples, 24 h, Cnominal BDE-47 1.6 mg·L^−1) of the same compound?
A: 0.07

Q: What about the “biotransformation ratio metabolite / free bioavailable BDE-47 concentration” value (ZFL cells [1]; medium samples, 24 h, Cnominal BDE-47 2.8 mg·L^−1) of the same compound?
A: 0.08

Q: And the “biotransformation ratio metabolite / free bioavailable BDE-47 concentration” value (ZFL cells [1]; medium samples, 48 h, Cnominal BDE-47 1.6 mg·L^−1)?
A: 0.08

Q: And the “biotransformation ratio metabolite / free bioavailable BDE-47 concentration” value (ZFL cells [1]; medium samples, 48 h, Cnominal BDE-47 2.8 mg·L^−1)?
A: 0.08

Q: What about the “biotransformation ratio metabolite / free bioavailable BDE-47 concentration” value (ZFL cells [1]; medium samples, 72 h, Cnominal BDE-47 1.6 mg·L^−1) of the same compound?
A: 0.09

Q: What about the “biotransformation ratio metabolite / free bioavailable BDE-47 concentration” value (ZFL cells [1]; medium samples, 72 h, Cnominal BDE-47 2.8 mg·L^−1) of the same compound?
A: 0.15

Q: With `COc1cc(Oc2ccc(Br)cc2Br)c(Br)cc1Br` [5-MeO, 5-MeO-BDE-47] as the compound, how does the “biotransformation ratio metabolite / BDE-47 concentration” value (HepG2 cells; cell samples) read?
A: 0.10

Q: What about the “biotransformation ratio metabolite / BDE-47 concentration” value [2] of the same compound?
A: 0.06–0.13

Q: And the “biotransformation ratio metabolite / free bioavailable BDE-47 concentration” value (ZFL cells [1]; cell samples, 24 h, Cnominal BDE-47 1.6 mg·L^−1)?
A: 0.11

Q: And the “biotransformation ratio metabolite / free bioavailable BDE-47 concentration” value (ZFL cells [1]; cell samples, 24 h, Cnominal BDE-47 2.8 mg·L^−1)?
A: 0.17

Q: What about the “biotransformation ratio metabolite / free bioavailable BDE-47 concentration” value (ZFL cells [1]; cell samples, 48 h, Cnominal BDE-47 1.6 mg·L^−1) of the same compound?
A: 0.12

Q: What about the “biotransformation ratio metabolite / free bioavailable BDE-47 concentration” value (ZFL cells [1]; cell samples, 48 h, Cnominal BDE-47 2.8 mg·L^−1) of the same compound?
A: 0.18

Q: What about the “biotransformation ratio metabolite / free bioavailable BDE-47 concentration” value (ZFL cells [1]; cell samples, 72 h, Cnominal BDE-47 1.6 mg·L^−1) of the same compound?
A: 0.15

Q: And the “biotransformation ratio metabolite / free bioavailable BDE-47 concentration” value (ZFL cells [1]; cell samples, 72 h, Cnominal BDE-47 2.8 mg·L^−1)?
A: 0.20

Q: For `Oc1cc(Oc2ccc(Br)cc2Br)c(Br)cc1Br` [5-OH, 5-OH-BDE-47], which “biotransformation ratio metabolite / BDE-47 concentration” value (HepG2 cells; medium samples) is on record?
A: 0.2

Q: With `c1ccc2c(c1)ccc1ccccc12` [PHE, phenanthrene] as the compound, how does the “% Cfree, exp” value ([3]; Cnom 10 mg·L^−1, % of total concentration) read?
A: 2.4% and 2.4 ± 0.2%

Q: What about the “Cfree, exp” value ([3]; Cnom 10 mg·L^−1, PA fiber) of the same compound?
A: (0.22 ± 0.02) mg·L^−1

Q: What about the “% Cfree, exp” value ([3]; Cnom 20 mg·L^−1, % of total concentration) of the same compound?
A: 2.9% and 2.9 ± 0.2%

Q: What about the “Cfree, exp” value ([3]; Cnom 20 mg·L^−1, PA fiber) of the same compound?
A: (0.52 ± 0.04) mg·L^−1

Q: What about the “Ratio MBM/experimental of internal concentration” value (“Ratio MBM/experimental” for short) (ZFL cells [4]; 24h, 10 mg·L-1, ZFL cells) of the same compound?
A: 491%

Q: And the “Ratio MBM/experimental” value (ZFL cells [4]; 24h, 50 mg·L-1, ZFL cells)?
A: 510%

Q: What about the “Ratio MBM/experimental” value (ZFL cells [4]; 48h, 10 mg·L-1, ZFL cells) of the same compound?
A: 532%

Q: What about the “Ratio MBM/experimental” value (ZFL cells [4]; 48h, 50 mg·L-1, ZFL cells) of the same compound?
A: 449%

Q: And the “Ratio MBM/experimental” value (ZFL cells [4]; 72h, 10 mg·L-1, ZFL cells)?
A: 421%

Q: What about the “Ratio MBM/experimental” value (ZFL cells [4]; 72h, 50 mg·L-1, ZFL cells) of the same compound?
A: 402%

Q: What about the BCFMBM (ZFL cells [4]; ZFL cells, previous study) of the same compound?
A: 1656 L/kg

Q: And the “ratio of MBM vs. experimental Ccell” value (ZFL cells [4]; ZFL cells, previous study)?
A: above 100%

Q: What about the “free concentration as % of total concentration” value (ZFL cells [4]; assays with ZFL cells, previous study) of the same compound?
A: 1.7%

Q: And the BCF48 h (ZFL cells [5])?
A: 393 L/kg

Q: And the BCFk (ZFL cells [5])?
A: 986 L/kg

Q: What about the “log DPA/medium” value [6] of the same compound?
A: 6.69

Q: And the “log DBSA/W” value [7]?
A: 3.81

Q: With `CC/C(=C(\c1ccccc1)c1ccc(OCCN(C)C)cc1)c1ccccc1` [tamoxifen] as the compound, how does the “decrease of free concentration from the initial concentration” value [8] read?
A: up to 50%
